Results on 1 compound are retold here after patent US9421269B2, “Saponin nano micelle, preparing method, application and pharmaceutical composition thereof” (FUJIAN SOUTH PHARMACEUTICAL CO., LTD, priority 2013, dated 2016).

Each structure is given as a SMILES string.

A short description of this data set: appearance of drug-loading micelle solution versus contrast sample. In kind it is physicochemical. The note with it: in 10 ml absolute ethanol.

As for `Oc1ccc(C=Cc2cc(O)cc(O)c2)cc1` [resveratrol], the appearance of solution entry was “murky”.
